B1: AC-SL028-GGS (AC-Phe-Ser-Arg-Asp-Trp-Thr-Ser-Gly-Gly-Ser-Lys-NH2) (peptide)
peptide: FSRDWTSGGSK
modifications: AC (acetyl) on the N-terminus; C-terminal amide
B2: GGS-SL028 (H-Lys-Gly-Gly-Ser-Phe-Ser-Arg-Asp-Trp-Thr-Ser-NH2) (peptide)
peptide: H-KGGSFSRDWTS-NH2

What was measured:
hCD38 = test: Phage display biopanning, PHASTpep selectivity score; assay type: binding, human; details: fold change of peptide frequency hCD38 versus average of hCD4, hCD8, GST-His; two rounds of biopanning, NGS
Source text: Using phage display and purified human CD38 protein (hCD38), the first generation high- and low-selectivity CD38-targeted peptides were identified for the development of CD38-targeted imaging agents. Briefly, two rounds of phage display screening using the PHASTpep platform identified selective peptides for human CD38. CD38 (R&D, Catalog 2404-AC-010, Minneapolis, MN, U.S.A.) or negative control proteins, human CD4 (hCD4), human CD8 (hCD8), and GST-6His were adsorbed on Maxisorp plates (Nalgene, Nunc #442,404) according to NEB phage display protocols (NEB, Ipswich, MA). A 10 μL aliquot of PhD7 library (7 amino acid linear library) (2 × 10^11 phage) (NEB, #E8211S) diluted in blocking buffer (DPBS/1% bovine serum albumin (BSA)) was added to each well. After 1 h of incubation at room temperature, wells were washed five times with blocking buffer and the remaining bound phage eluted into 100 μL of glycine buffer (0.2 M glycine, 0.5 M NaCl, pH 2.2) for 9 min before immediately neutralizing with 17 μL of 1 M Tris–HCl (pH 9.2).
For analysis, sequencing of the selected phage clones was performed as described in Brinton et al.. Samples sent to the UVA Biomolecular Research Core Facility were deep sequenced on an Illumina MiSeq Sequencer. FASTQ files were analyzed using PHASTpep. PHASTpep analyzed files were aligned for amino acid sequence homology using the Smith—Waterman algorithm.
To identify peptides selective for CD38, we biopanned a random, 7 amino acid peptide phage library on recombinant hCD38 as well as hCD4, hCD8, and GST-His. After two rounds of biopanning on each protein, phage were harvested, amplified, and processed for next generation sequencing (NGS). FASTQ files were uploaded into PHASTpep, translated into peptides, and tables of frequency produced. All sequences were normalized to the naïve library (preselection) sequence frequencies and finally the fold change for each peptide frequency between hCD38 and the average of the same peptide frequency from the hCD4, hCD8, and GST-His screens was calculated. The Smith-Waterman homology algorithm was employed to identify clusters of similar peptides (Table S1). From the analysis, two clusters emerged with more than 5 peptides in the homology family and also had high selectivity (PHASTpep Score, Table S1).

[1] = biological target: T1, Recombinant human CD38 protein (Homo sapiens, UniProt P28907); test: Microscale thermophoresis (MST) binding affinity; parameters: purchased R&D 2404-AC-010; details: for Response Amplitude: Table S2
Experimental: Microscale thermophoresis (MST) assays determined the binding affinity of synthesized peptides to purified CD38 protein and was performed using the Monolith NT.115 (Nanotemper Technologies, Munich, Germany). […] Recombinant human CD38 protein (R&D, Catalog 2404-AC-010, Minneapolis, MN) was labeled with NT647 (Protein labeling kit red-maleimide, Nanotemper Technologies, Germany) and subsequently diluted to 5 nM in MST-2 buffer (50 mM Tris–HCl, pH 7.4, 150 mM NaCl, 10 mM MgCl2, 2% DMSO, and 0.1% Tween-20). Fluorescence was assessed in MST-2 buffer. Samples were loaded into NT.115 standard capillaries, and analysis was performed at 37 °C, 10% LED power, and 40% MST power. The Kd values were calculated from fragment concentration-dependent changes in normalized fluorescence (Fraction Bound) of different CD38 peptides based on the law of mass action using the MO Affinity Analysis v2.3 software.
Microscale Thermophoresis (MST) measures molecular interactions based on temperature gradient-dependent mobility of fluorescent biomolecules.
Fig. 1 Binding studies evaluating CD38-peptides using purified CD38 protein. Microscale thermophoresis (MST) analysis of binding affinities between purified CD38 protein and various CD38 peptide sequences.

[2] = biological target: T2, CD38 on MM.1S-CBR-GFP-WT cells (Homo sapiens, UniProt P28907); test: In vitro blocking study of ^64Cu-NODAGA-PEG4-SL022-GGS cell binding; assay type: cell-based; details: for blocking of ^64Cu-NODAGA-PEG4-SL022-GGS binding: 75 μM blocker, MM.1S-CBR-GFP-WT cells
T2 construct: endogenous in cells; host or cells: MM.1S-CBR-GFP-WT human myeloma cells
Experimental: To evaluate the specificity of the CD38 binding peptide, MM.1S-CBR-GFP-WT cells were suspended in binding buffer (Hank’s Balanced Salt Solution with 1 mM Ca^2+ and 1 mM Mg^2+ (HBSS + / +, Gibco, ThermoFisher, Waltham, MA) supplemented with 0.1% BSA) at 4 × 10^5 cells per 250 μL, representing the reaction volume.
In order to determine whether the conjugates were able to identify CD38 protein expressed in its native context, we performed cell binding assays with MM.1S-CBR-GFP-WT cells.

[3] = biological target: T1, Recombinant human CD38 protein; test: MST; Monolith NT.115; NT647-labeled recombinant human CD38 at 5 nM in MST-2 buffer (50 mM Tris-HCl pH 7.4, 150 mM NaCl, 10 mM MgCl2, 2% DMSO, 0.1% Tween-20); peptides titrated (0.0305 nM to 1000 nM or 0.0305 uM to 1000 uM); 37 °C, 10% LED power, 40% MST power

Molecule	Score (PHASTpep Score) (hCD38)	further results
QTSHDWL	1.7	
YDWTMHS	299.7	
VSYHFPV	194.4	
VNYHFPV	1.2	binding to purified CD38 [1]: negligible binding
FSRDWTS	671.1	
YKDWSEW	266.4	
AC-Phe-Ser-Arg-Asp-Trp-Thr-Ser-Gly-Gly-Ser-Lys-NH2 [AC-SL028-GGS]		Response Amplitude [1]: 4.64
daratumumab: CD38-targeted FDA approved antibody [reference compound]		blocking of ^64Cu-NODAGA-PEG4-SL022-GGS binding ([2]; 300 nM tracer, 4 °C, 60 min): 73%; cell-bound ^64Cu-NODAGA-PEG4-SL022-GGS in presence of blocker ([2]; 300 nM tracer, 75 μM unlabeled blocker (250-fold molar excess), 4 °C, 60 min, mean ± SD): 3000 ± 600 fmol/mg
AC-Thr-His-Tyr-Pro-Ile-Val-Ile-Gly-Gly-Ser Lys-NH2 [AC-SL022-GGS]		Response Amplitude [1]: 4.91
DLVHYPE	1.5	
MPVARDW	2.1	
Thr-His-Tyr-Pro-Ile-Val-Ile [THYPIVI]	730.1	
TPYPIVL	429.7	
NODAGA-PEG4-Thr-His-Tyr-Pro-Ile-Val-Ile-Gly-Gly-Ser-Lys-NH2 [NODAGA-PEG4-SL022-GGS]		blocking of ^64Cu-NODAGA-PEG4-SL022-GGS binding ([2]; 300 nM tracer, 4 °C, 60 min): 58%; decrease in cell-bound ^64Cu-NODAGA-PEG4-SL022-GGS ([2]; 250-fold molar excess of unlabeled blocker): about 2 fold
QGTDWTM	1.7	
B1		Kd [3]: 243 nM
B2		Kd [3]: 82.6 nM

From PMC11282151, “Development of New CD38 Targeted Peptides for Cancer Imaging” (Molecular imaging and biology, 2024)
